Several values for one entry are separate records, joined by “and”; a condition that tells them apart may be missing. Equal entries are not always repeated. Entries after “also recorded” stand apart in the source; their conditions may differ. Where two headings read alike, the source gives them in different places.
Legend:
NMDA receptors = format: cell-based, rat
[1] = cited from earlier work
[2] = system: bloodstream form T. brucei (strain 427); format: cell-based, Trypanosoma brucei
VSV in HEL cells = format: cell-based, vesicular stomatitis virus
[3] = system: vesicular stomatitis virus (VSV) in HeLa cells; details: for EC50: read-out: EC50 (50% antiviral effective concentration) against VSV
[4] = system: influenza A/Puerto Rico/8/34 (H1N1); experiment: Influenza virus assay, A/H1N1; format: cell-based; details: read-out: antiviral EC50 against influenza A/H1N1 subtype
[5] = read-out: IC50, Glutamate (100 μM)

6,7,8,9,10,11-Hexahydro-9-methyl-5,7:9,11-dimethano-5H-benzocyclononen-7-amine hydrochloride [Compound 3]
IC50 (NMDA receptors; [5]): 22 ± 3.9 µM | IC50 (NMDA receptors; read-out: IC50, NMDA (100 μM)): 13.6 ± 3.4 µM

c1ccc(CNC23OC4C5C6CC(C7C6C4C72)C53)cc1 (stereo not shown) [NGP1-01]
stability in aqueous medium (in words) [1]: decomposes easily in aqueous medium

N,N-Dimethyl-6,7,8,9,10,11-hexahydro-9-methyl-5,7:9,11-dimethano-5H-benzocyclononen-7-amine hydrochloride [Compound 11]
IC50 (NMDA receptors; [5]): 87 ± 28 µM | IC50 (NMDA receptors; read-out: IC50, NMDA (100 μM)): 12 µM and 11.8 µM | inhibitory activity against cultured bloodstream form T. brucei (in words) ([2]; at 5 μg mL^−1 (15–20 μM)): little or no inhibitory activity

N,N-dipropargyl-6,7,8,9,10,11-hexahydro-9-methyl-5,7:9,11-dimethano-5H-benzocyclononen-7-amine hydrochloride [Compound 10]
activity against VSV in HEL cells (in words) (VSV in HEL cells): not active | selectivity index (ratio of cytotoxic to antiviral concentration) [3]: 25 | EC50 [3]: 4 µM

N-(6,7,8,9,10,11-hexahydro-9-methyl-5,7:9,11-dimethano-5H-benzocyclononen-7-yl)piperidine hydrochloride [Compound 12]
IC50 (NMDA receptors; [5]): > 500 µM | activity against VSV in HEL cells (in words) (VSV in HEL cells): not active | EC50 [3]: 54 µM

N-Benzyl-6,7,8,9,10,11-hexahydro-9-methyl-5,7:9,11-dimethano-5H-benzocyclononen-7-amine hydrochloride [Compound 6]
NMDA receptor antagonist activity (in words) (NMDA receptors): devoid of activity; also recorded: not active as NMDA receptor antagonist | IC50 ([2]; read-out: IC50 against cultured bloodstream form T. brucei): 3 ± 0.32 µM | IC90 ([2]; read-out: IC90 against cultured bloodstream form T. brucei): 6.55 ± 0.32 µM | EC50 [4]: 10 µM

N-Benzyl-N-methyl-6,7,8,9,10,11-hexahydro-9-methyl-5,7:9,11-dimethano-5H-benzocyclononen-7-amine hydrochloride [Compound 7]
NMDA receptor antagonist activity (in words) (NMDA receptors): devoid of activity

N-Methyl-6,7,8,9,10,11-hexahydro-9-methyl-5,7:9,11-dimethano-5H-benzocyclononen-7-amine hydrochloride [Compound 8]
IC50 (NMDA receptors; [5]): 455 ± 216 µM | IC50 (NMDA receptors; read-out: IC50, NMDA (100 μM)): 19.4 ± 3.3 µM

N-Propargyl-6,7,8,9,10,11-hexahydro-9-methyl-5,7:9,11-dimethano-5H-benzocyclononen-7-amine hydrochloride [Compound 9]
IC50 (NMDA receptors; [5]): > 500 µM | IC50 (NMDA receptors; read-out: IC50, NMDA (100 μM)): 27.5 ± 13.2 µM | IC90 lower than that of rimantadine (fold) ([2]; versus rimantadine): more than 4 times
